Results taken from patent publication US20240050449A1, “Use of Acetyltanshinone IIA in Preparation of Medicament for Treating Lung Cancer and Medicament for Treating Lung Cancer” (UNIVERSITY OF MACAU, priority 2022, published 2024).
“Also recorded” adds a separate entry of the source.

What was measured:
[1] = Body weight, deaths and toxicity in the xenograft study; conditions: 25 mg/kg intraperitoneally every 3 days for 31 days
Protocol: (§1) Cell line xenograft experiments were performed in 6-week-old female nude mice, 4×10^6 A549 cells were mixed 1:1 with matrigel-basement membrane matrix (Corning) and injected subcutaneously into nude mice. Tumors were allowed to grow to around […] and mice were randomly selected to receive treatment with ATA (25 mg/kg) or Erlotinib (25 mg/kg) intraperitoneally every 3 days for 31 days. ATA was formulated with 25% ethanol, 60% PEG300 (Sigma-Aldrich), and 15% Tween 80 (Sigma-Aldrich). Erlotinib was formulated in 5% DMSO, 30% PEG300, 5% Tween 80 and 60% H2O. Mouse body weight and tumor volume were measured every 3 days by a scale and caliper. Tumor volume (mm^3) was calculated using the formula. π/6×length (mm)×[width (mm)]^2. At least 6 mice in the control and treatment groups were evaluated during the study. All mice were sacrificed after 31 days of drug treatment, tumors were collected, and tumor weights were recorded. All animal studies were conducted in accordance with the requirements of the Animal Research Ethics Committee of Macao University and in compliance with all relevant ethical requirements.
(§2) To determine if ATA could also produce the same effect in vivo, this example injected A549 cells subcutaneously into nude mice to form tumor xenografts. Mice were randomly assigned to three groups. When the size of each tumor increased to a volume of approximately 100 mm^3, mice were injected intraperitoneally with vehicle control, ATA (25 mg/kg), or Erlotinib (25 mg/kg) every 3 days for 31 days. The tumor size and body weight of each mouse were measured every 3 days until the end of the animal experiment on day 31.

H1650 cells [2] = experiment: MTT cell viability assay, H1650 cells; type: cell-based
Protocol: (§3) Cells were seeded at a density of 3×10^3 per well in 96-well plates, allowed to attach overnight, and treated with various concentrations of agent. After 72 h of treatment, 10 μL of MTT solution (5 mg/mL) was added to each well and cultured in the plate for 4 h. The crystallized formazan was dissolved in 100 μL of 10% (w/v) SDS and 0.01 mol/L HCl solution for 24 h, and then the value was read by spectrophotometry at 595 nm using a microplate reader.

H1650 cells [3] = experiment: Spheroid formation experiment, H1650 cells
p70S6K = target: T1, p70S6K (Homo sapiens, UniProt P23443); experiment: Western blot, p70S6K protein levels in drug-resistant NSCLC cells; type: cell-based; conditions: 48 h
T1 construct: endogenous in cells; host or cells: A549, H358, H1975, H1650 for the Western blots
T1 sequence (P23443 whole entry): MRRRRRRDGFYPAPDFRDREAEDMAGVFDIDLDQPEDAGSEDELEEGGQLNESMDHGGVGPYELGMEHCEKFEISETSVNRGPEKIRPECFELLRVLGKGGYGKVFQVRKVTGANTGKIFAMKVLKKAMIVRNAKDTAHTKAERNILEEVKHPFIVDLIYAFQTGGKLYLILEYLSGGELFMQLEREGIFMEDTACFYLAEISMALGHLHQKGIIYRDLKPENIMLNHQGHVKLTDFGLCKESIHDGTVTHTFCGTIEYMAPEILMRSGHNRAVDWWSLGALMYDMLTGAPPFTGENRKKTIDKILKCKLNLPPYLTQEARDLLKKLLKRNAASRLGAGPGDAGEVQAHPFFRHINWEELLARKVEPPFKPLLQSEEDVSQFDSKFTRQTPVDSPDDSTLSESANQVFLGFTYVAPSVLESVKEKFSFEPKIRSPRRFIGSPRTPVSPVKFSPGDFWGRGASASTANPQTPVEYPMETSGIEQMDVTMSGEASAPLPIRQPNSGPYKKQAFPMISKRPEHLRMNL
Protocol: Cells were washed once with PBS and frozen in RIPA lysis buffer containing protease and phosphatase inhibitors (Sigma-Aldrich) for 30 min. After sonication and centrifugation, the total protein concentration was determined by protein assay using Bio-Rad concentrated dye reagent (Bio-Rad). Equal amounts of protein ([…]) from each sample were separated by SDS-PAGE and electrotransferred to nitrocellulose membranes (GE Healthcare). Detection was performed on the membrane with a 1:1000 dilution of specific primary antibody followed by incubation with a 1:2000 dilution of the HRP conjugated secondary antibody. Finally, immunoreactivity is detected with a chemiluminescent substrate (Clarity Western ECL substrate; Bio-Rad). EGFR (#4267S), MET (#8198S), p-Akt (#9271L), akt (#9272S), p-mTOR (#5536S), mTOR (#2983S), p-p70S6K (#9234S), p70S6K (#2708S), p-S6RP (#4857S), S6RP (#2217S), p-4E-BP1 (#9455S) antibodies. 4E-BP1 (#9644S), p53 (#2527S), p21 waf1/Cip1 (#2947S), survivin (#2808S), cyclin B1 (#12231S), cyclin D3 (#2936S) and GAPDH (#2118S) were purchased from Cell Signaling Technology. Aurora A (#ab13824) and PLK1 (#ab189139) antibodies were from Abcam.

[4] = tested on: protein levels in A549-derived xenograft tumor tissue; experiment: Western blot of A549-derived xenograft tumor tissue; type: in vivo, nude mice; conditions: after ATA treatment, 25 mg/kg
Protocol: Cells were washed once with PBS and frozen in RIPA lysis buffer containing protease and phosphatase inhibitors (Sigma-Aldrich) for 30 min. After sonication and centrifugation, the total protein concentration was determined by protein assay using Bio-Rad concentrated dye reagent (Bio-Rad). Equal amounts of protein (25-50 mg) from each sample were separated by SDS-PAGE and electrotransferred to nitrocellulose membranes (GE Healthcare). Detection was performed on the membrane with a 1:1000 dilution of specific primary antibody followed by incubation with a 1:2000 dilution of the HRP conjugated secondary antibody. Finally, immunoreactivity is detected with a chemiluminescent substrate (Clarity Western ECL substrate; Bio-Rad). EGFR (#4267S), MET (#8198S), p-Akt (#9271L), akt (#9272S), p-mTOR (#5536S), mTOR (#2983S), p-p70S6K (#9234S), p70S6K (#2708S), p-S6RP (#4857S), S6RP (#2217S), p-4E-BP1 (#9455S) antibodies. 4E-BP1 (#9644S), p53 (#2527S), p21 waf1/Cip1 (#2947S), survivin (#2808S), cyclin B1 (#12231S), cyclin D3 (#2936S) and GAPDH (#2118S) were purchased from Cell Signaling Technology. Aurora A (#ab13824) and PLK1 (#ab189139) antibodies were from Abcam.
EGFR, MET, p-p70S6K, p70S6K, p-S6RP, S6RP, p21, AURKA, PLK1, and survivin protein levels were detected by Western blot analysis. Immunoblot samples were from two independent tumors per group.

[5] = tested on: all four drug-resistant cell lines (A549, H358, H1975, H1650); experiment: Colony formation, all four drug-resistant cell lines; type: cell-based; conditions: 1 μM, 10 days
Protocol: (§4) Cells were seeded at a density of 1×10^3 per well in 6-well plates and cultured for 24 h. The cells were treated with medicament or DMSO for 10 days, after which the cells were washed once with 1×PBS, fixed with 4% paraformaldehyde for 20 min, and stained with 0.1% crystal violet for 15 min. The stained cells in each well were imaged and the number of colonies in each well was quantified using ImageJ software.

H1975 cells [6] = experiment: Colony formation (cloning experiment), H1975 cells; type: cell-based; conditions: 0.125 μM, 10 days
Protocol: as §4

H1650 cells [7] = experiment: Colony formation (cloning experiment), H1650 cells; type: cell-based; conditions: 10 days
Protocol: as §4

A549 cells = experiment: Transwell Matrigel invasion assay; type: cell-based
Protocol: Cell migration and invasion assays were performed in a transwell chamber (Corning, #3422) with a pore size of 8 μm. Cells were treated with different concentrations of ATA and Erlotinib for 48 h, then harvested and resuspended in a serum-free medium. Cells (1×10^4) were added to the upper side of the transwell chamber and fresh medium containing 10% FBS was added to the lower side. Cells were allowed to migrate from the upper side to the lower side of the chamber at 37° C. for 24 h. Membranes from the cell chamber were fixed with 4% paraformaldehyde for 20 min. The cells remaining on the upper side of the membrane were gently removed with a cotton swab and stained with 1% crystal violet for 20 min to stain the cells migrating to the other side of the transwell chamber. The membrane was then cut and fixed on a glass slide. The migrated cells on each slide were imaged with a Leica M165-FC microscope. For the transwell invasion assay, a Matrigel solution (Corning, #356230) was diluted to one-thirtieth with serum-free medium and applied to the upper side of the precoated chamber for 2 h, after the Matrigel had solidified, the cells were added to the upper side of the transwell chamber. The following procedure is identical to the migration assay. Migrated and invaded cells were quantified using ImageJ software.

H1975 cells [8] = experiment: MTT cell viability assay, H1975 cells; type: cell-based
Protocol: as §3

[9] = tested on: A549 cell-derived xenograft tumors; experiment: Mouse xenograft study; type: in vivo, nude mice; conditions: 25 mg/kg intraperitoneally every 3 days, day 31
Protocol: as §1, §2

CC(=O)Oc1c(OC(C)=O)c2c(C)coc2c2ccc3c(c12)CCCC3(C)C [ATA, acetyltanshinone IIA]
deaths during the treatment period [1]: no mice died | toxicity in nude mice [1]: no significant toxicity | weight of nude mice compared between groups [1]: no difference | IC50 ratio of Erlotinib/ATA (H1650 cells [2]): 17.3 | growth inhibition compared with other agents (H1650 cells [2]; ATA 2 μM, 72 h, MTT): significantly higher than all three inhibitors; also recorded: greater growth inhibition than combination therapy with Erlotinib and MLN8237 | IC50 (H1650 cells [2]; MTT, 72 h): 1280 ± 290 nM | spheroid growth / sphere size (H1650 cells [3]; 2 μM, 0 to 8 days): completely inhibited | spheroid formation (H1650 cells [3]; both 1 and 2 μM): strongly inhibited | levels of p70S6K protein and its phosphorylated forms (p70S6K; A549, H358, H1975, H1650 cells, 1 or 2 μM): greatly reduced | levels of p70S6K (p70S6K; A549 and H1650 cells, 2 μM): significantly decreased | increase of p21 protein levels in xenograft tumor tissue [4]: more than 2 fold | protein levels of EGFR, MET, p-p70S6K, p70S6K, p-S6RP, AURKA, PLK1 and survivin in xenograft tumor tissue [4]: greatly reduced | inhibition of colony formation compared with Erlotinib and Osimertinib [5]: much more effectively than Erlotinib and Osimertinib | inhibition of colony formation (H1975 cells [6]): almost completely inhibited | reduction of colony-forming capacity (H1650 cells [7]; 0.125 μM): 73% | colony formation inhibition compared with Afatinib (H1650 cells [7]; 1 μM): significantly higher colony formation inhibition than Afatinib | effect on cell invasion (A549 cells; 0.5 μM): significant inhibitory effect | reduction of invasion ability (A549 cells; 1 μM): 88% | IC50 ratio of Erlotinib/ATA (H1975 cells [8]): 6 | IC50 (H1975 cells [8]; MTT, 72 h): 1760 ± 20 nM | reduction of tumor size compared to the control group [9]: 72.1% | reduction of tumor weight [9]: 77.4%
